# Laboratory results as given in patent US20230073777A1, “CYCLIC-AMP RESPONSE ELEMENT BINDING PROTEIN (CBP) AND/OR ADENOVIRAL E1A BINDING PROTEIN OF 300 KDA (P300) DEGRADATION COMPOUNDS AND METHODS OF USE” (CULLGEN (SHANGHAI), INC., priority 2019, published 2023).
# Tests used:
# LNCaP cells = test: LNCaP cell viability assay (CellTiter-Glo); type: cell-based; conditions: for IC50: Homo sapiens, 72 h, LNCaP prostate cancer cell viability inhibition, 3 days, CellTiter-Glo (Table 2)
# Procedure: LNCaP cells seeded in 96-well plates were treated with 10 μM GNE-781 or selected bivalent compounds, i.e. P-001, P-002, and P-019, following a 12-point 3-fold serial dilution. Three days after treatment, cell viability was determined using the CellTiter-Glo kit (Promega) following manufacturer's instructions. Cell viability was normalized to the mean values of 3 replicates of untreated cells. Dose-dependent response was analyzed following the least-squares non-linear regression method using the GraphPad Prism 5.0 software.
# LNCaP cells were treated with GNE-781 or selected bivalent compounds for 3 days at indicated concentrations following a 3-fold serial dilution.
# Cells were seeded at a density of 5000 cells per well in 96-well assay plates and treated with test compounds following a 12-point 3-fold serial dilution. Three days later, cell viability was determined using the CellTiter-Glo assay kit according to the manufacturer's instructions. The dose-response curves were determined and IC50 values were calculated using the GraphPad Prism software following a nonlinear regression (least squares fit) method.
# P300 = P300 (Homo sapiens, UniProt Q09472); test: Immunoblotting of P300 protein levels in LNCaP or 22RV1 cells; type: cell-based; parameters: LNCaP or 22RV1 cells that express CBP/P300 proteins were treated with GNE-781 or the bivalent compounds; endogenous in cells; host or cells: LNCaP (clone FGC) or 22RV1 cells; conditions: percentage of inhibition of p300 at 10 nM (Table 2); read-out: Degradation (10 nM)
# Procedure: Specific exemplary bivalent compounds were characterized in LNCaP or 22RV1 cells. LNCaP or 22RV1 cells that express CBP/P300 proteins were treated with GNE-781 or the bivalent compounds disclosed herein (P-001 to P-174) for indicated hours. Cells were collected, lysed and subject to immunoblotting using an antibody specific to P300 or CBP proteins. Tubulin or vinculin was included as the loading control. DMSO was used as the negative control.
# Cultured cells or tissue chunks were washed with cold PBS once and lysed in cold RIPA buffer supplemented with protease inhibitors and phosphatase inhibitors (Beyotime Biotechnology). The solutions were then incubated at 4° C. for 30 minutes with gentle agitation to fully lyse cells. Cell lysates were centrifuged at 13,000 rpm for 10 minutes at 4° C. and pellets were discarded. Total protein concentrations in the lysates were determined by BCA assays (Beyotime Biotechnology). Cell lysates were mixed with Laemmli loading buffer to 1× and heated at 99° C. for 5 min. Proteins were resolved on SDS-PAGE and visualized by chemiluminescence. Images were taken by a ChemiDoc MP Imaging system (Bio-Rad). Protein bands were quantitated using the accompanied software provided by Bio-Rad.
# P300, sequence (Q09472 whole entry): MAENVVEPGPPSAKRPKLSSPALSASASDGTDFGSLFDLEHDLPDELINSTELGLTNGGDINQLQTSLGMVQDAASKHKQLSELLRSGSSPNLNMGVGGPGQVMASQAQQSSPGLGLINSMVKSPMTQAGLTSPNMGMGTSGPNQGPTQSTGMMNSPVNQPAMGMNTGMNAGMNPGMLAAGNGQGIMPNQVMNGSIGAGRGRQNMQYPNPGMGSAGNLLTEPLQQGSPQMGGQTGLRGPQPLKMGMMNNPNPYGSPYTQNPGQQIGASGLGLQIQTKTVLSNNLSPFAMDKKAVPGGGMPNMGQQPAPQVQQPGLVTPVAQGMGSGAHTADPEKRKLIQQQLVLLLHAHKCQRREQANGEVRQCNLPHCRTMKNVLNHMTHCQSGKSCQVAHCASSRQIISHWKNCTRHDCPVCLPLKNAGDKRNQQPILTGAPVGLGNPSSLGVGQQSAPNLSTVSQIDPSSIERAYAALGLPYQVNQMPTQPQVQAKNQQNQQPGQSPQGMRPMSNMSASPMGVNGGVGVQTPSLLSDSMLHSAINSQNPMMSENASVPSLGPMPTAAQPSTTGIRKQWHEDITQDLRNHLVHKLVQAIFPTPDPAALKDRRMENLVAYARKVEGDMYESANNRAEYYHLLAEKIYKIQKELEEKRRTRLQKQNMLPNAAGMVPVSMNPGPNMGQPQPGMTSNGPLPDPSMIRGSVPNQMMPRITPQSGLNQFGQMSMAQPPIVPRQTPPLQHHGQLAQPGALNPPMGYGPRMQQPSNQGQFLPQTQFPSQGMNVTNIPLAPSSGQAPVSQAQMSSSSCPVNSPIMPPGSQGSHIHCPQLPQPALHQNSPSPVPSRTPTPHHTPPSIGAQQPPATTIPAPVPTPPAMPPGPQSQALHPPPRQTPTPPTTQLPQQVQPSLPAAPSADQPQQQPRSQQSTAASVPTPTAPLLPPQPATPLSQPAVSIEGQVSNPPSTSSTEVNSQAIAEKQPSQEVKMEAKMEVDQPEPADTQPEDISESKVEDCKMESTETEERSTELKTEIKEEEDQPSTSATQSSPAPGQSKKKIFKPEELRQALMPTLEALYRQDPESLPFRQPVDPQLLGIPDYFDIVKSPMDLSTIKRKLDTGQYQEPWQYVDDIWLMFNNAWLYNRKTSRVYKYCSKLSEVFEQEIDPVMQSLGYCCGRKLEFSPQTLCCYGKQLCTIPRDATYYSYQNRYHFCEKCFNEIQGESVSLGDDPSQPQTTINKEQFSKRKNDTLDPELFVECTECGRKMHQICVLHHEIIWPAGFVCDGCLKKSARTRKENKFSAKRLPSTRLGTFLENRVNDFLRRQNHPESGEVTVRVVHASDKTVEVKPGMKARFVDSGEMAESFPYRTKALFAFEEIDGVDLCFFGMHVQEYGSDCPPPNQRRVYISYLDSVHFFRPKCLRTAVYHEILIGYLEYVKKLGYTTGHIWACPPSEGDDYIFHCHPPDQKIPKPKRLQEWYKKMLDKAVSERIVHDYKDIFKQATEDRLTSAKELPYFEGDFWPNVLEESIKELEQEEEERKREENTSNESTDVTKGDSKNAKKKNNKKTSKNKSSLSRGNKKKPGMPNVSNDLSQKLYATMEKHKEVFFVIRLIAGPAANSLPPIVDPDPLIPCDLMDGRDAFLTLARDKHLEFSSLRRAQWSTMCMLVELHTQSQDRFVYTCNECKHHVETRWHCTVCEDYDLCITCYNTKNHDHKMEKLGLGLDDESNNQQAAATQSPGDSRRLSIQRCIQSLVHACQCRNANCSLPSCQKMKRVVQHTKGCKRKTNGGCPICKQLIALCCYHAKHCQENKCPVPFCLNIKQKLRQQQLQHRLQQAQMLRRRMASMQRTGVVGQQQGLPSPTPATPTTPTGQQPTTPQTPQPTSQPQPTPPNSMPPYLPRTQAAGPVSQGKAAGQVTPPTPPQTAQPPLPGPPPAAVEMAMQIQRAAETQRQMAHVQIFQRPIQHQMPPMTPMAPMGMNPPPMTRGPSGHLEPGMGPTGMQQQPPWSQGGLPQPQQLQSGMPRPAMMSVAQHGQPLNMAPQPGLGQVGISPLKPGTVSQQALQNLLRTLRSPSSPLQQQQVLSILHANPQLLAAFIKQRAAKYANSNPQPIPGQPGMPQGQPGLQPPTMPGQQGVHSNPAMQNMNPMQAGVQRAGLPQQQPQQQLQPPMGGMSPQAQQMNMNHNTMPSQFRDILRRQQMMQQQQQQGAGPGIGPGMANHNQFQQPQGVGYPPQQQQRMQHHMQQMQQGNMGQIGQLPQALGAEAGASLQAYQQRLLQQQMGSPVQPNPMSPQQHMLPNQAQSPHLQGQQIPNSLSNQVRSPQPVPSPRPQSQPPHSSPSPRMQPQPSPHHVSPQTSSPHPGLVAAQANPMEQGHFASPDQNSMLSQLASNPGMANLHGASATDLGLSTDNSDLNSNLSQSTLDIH
Structure (SMILES),IC50 (LNCaP cells),inhibition at 0.01 µM (P300),"viability of LNCaP cells (LNCaP cells; from 10 μM, 12-point 3-fold serial dilution, 3 days (FIG. 4))"
"CNC(=O)N1CCc2c(c(N3CCCc4cc(-c5cnn(C)c5)c(C(F)F)cc43)nn2C2CCN(C(=O)CCOCCOCCOCCOCCOCCNc3ccc4c(c3)C(=O)N(C3CCC(=O)NC3=O)C4=O)CC2)C1 (stereo not shown) [P-012, 3-(7-(Difluoromethyl)-6-(1-methyl-1H-pyrazol-4-yl)-3,4-dihydroquinolin-1(2H)-yl)-1-(1-(1-((2-(2,6-dioxopiperidin-3-yl)-1,3-dioxoisoindolin-5-yl)amino)-3,6,9,12,15-pentaoxaoctadecan-18-oyl)piperidin-4-yl)-N-methyl-1,4,6,7-tetrahydro-5H-pyrazolo[4,3-c]pyridine-5-carboxamide]",197 nM,< 20%,
"CNC(=O)N1CCc2c(c(N3CCCc4cc(-c5cnn(C)c5)c(C(F)F)cc43)nn2C2CCN(C(=O)CCNc3cccc4c3C(=O)N(C3CCC(=O)NC3=O)C4=O)CC2)C1 (stereo not shown) [P-014, 3-(7-(Difluoromethyl)-6-(1-methyl-1H-pyrazol-4-yl)-3,4-dihydroquinolin-1(2H)-yl)-1-(1-(3-((2-(2,6-dioxopiperidin-3-yl)-1,3-dioxoisoindolin-4-yl)amino)propanoyl)piperidin-4-yl)-N-methyl-1,4,6,7-tetrahydro-5H-pyrazolo[4,3-c]pyridine-5-carboxamide]",> 10000 nM,< 20%,
"CNC(=O)N1CCc2c(c(N3CCCc4cc(-c5cnn(C)c5)c(C(F)F)cc43)nn2C2CCN(C(=O)CCCNc3cccc4c3C(=O)N(C3CCC(=O)NC3=O)C4=O)CC2)C1 (stereo not shown) [P-015, 3-(7-(difluoromethyl)-6-(1-methyl-1H-pyrazol-4-yl)-3,4-dihydroquinolin-1(2H)-yl)-1-(1-(4-((2-(2,6-dioxopiperidin-3-yl)-1,3-dioxoisoindolin-4-yl)amino)butanoyl)piperidin-4-yl)-N-methyl-1,4,6,7-tetrahydro-5H-pyrazolo[4,3-c]pyridine-5-carboxamide]",7.3 nM,> 80%,
"CNC(=O)N1CCc2c(c(N3CCCc4cc(-c5cnn(CC(=O)NCCNc6ccc7c(c6)C(=O)N(C6CCC(=O)NC6=O)C7=O)c5)c(C(F)F)cc43)nn2C2CCOCC2)C1 (stereo not shown) [P-016, 3-(7-(Difluoromethyl)-6-(1-(2-((2-((2-(2,6-dioxopiperidin-3-yl)-1,3-dioxoisoindolin-5-yl)amino)ethyl)amino)-2-oxoethyl)-1H-pyrazol-4-yl)-3,4-dihydroquinolin-1(2H)-yl)-N-methyl-1-(tetrahydro-2H-pyran-4-yl)-1,4,6,7-tetrahydro-5H-pyrazolo[4,3-c]pyridine-5-carboxamide]",3040 nM,< 20%,
"CNC(=O)N1CCc2c(c(N3CCCc4cc(-c5cnn(CC(=O)NCCCNc6ccc7c(c6)C(=O)N(C6CCC(=O)NC6=O)C7=O)c5)c(C(F)F)cc43)nn2C2CCOCC2)C1 (stereo not shown) [P-017, 3-(7-(Difluoromethyl)-6-(1-(2-((3-((2-(2,6-dioxopiperidin-3-yl)-1,3-dioxoisoindolin-5-yl)amino)propyl)amino)-2-oxoethyl)-1H-pyrazol-4-yl)-3,4-dihydroquinolin-1(2H)-yl)-N-methyl-1-(tetrahydro-2H-pyran-4-yl)-1,4,6,7-tetrahydro-5H-pyrazolo[4,3-c]pyridine-5-carboxamide]",99.2 nM,< 20%,
CNC(=O)N1CCc2c(c(N3CCCc4cc(-c5cnn(CC(=O)NCCCCNc6ccc7c(c6)C(=O)N(C6CCC(=O)NC6=O)C7=O)c5)c(C(F)F)cc43)nn2C2CCOCC2)C1 (stereo not shown) [P-018],59.4 nM,20 to 50%,
CNC(=O)N1CCc2c(c(N3CCCc4cc(-c5cnn(CC(=O)NCCCCCNc6ccc7c(c6)C(=O)N(C6CCC(=O)NC6=O)C7=O)c5)c(C(F)F)cc43)nn2C2CCOCC2)C1 (stereo not shown) [P-019],14.7 nM,50 to 80%,dose-dependently suppressed viability
CNC(=O)N1CCc2c(c(N3CCCc4cc(-c5cnn(CC(=O)NCCCCCCNc6ccc7c(c6)C(=O)N(C6CCC(=O)NC6=O)C7=O)c5)c(C(F)F)cc43)nn2C2CCOCC2)C1 (stereo not shown) [P-020],3.3 nM,> 80%,
CNC(=O)N1CCc2c(c(N3CCCc4cc(-c5cnn(CC(=O)NCCOCCNc6cccc7c6C(=O)N(C6CCC(=O)NC6=O)C7=O)c5)c(C(F)F)cc43)nn2C2CCOCC2)C1 (stereo not shown) [P-021],278 nM,< 20%,
"CNC(=O)N1CCc2c(c(N3CCCc4cc(-c5cnn(CC(=O)NCCOCCOCCNc6cccc7c6C(=O)N(C6CCC(=O)NC6=O)C7=O)c5)c(C(F)F)cc43)nn2C2CCOCC2)C1 (stereo not shown) [P-022, 3-(7-(Difluoromethyl)-6-(1-(2-((2-(2-(2-((2-(2,6-dioxopiperidin-3-yl)-1,3-dioxoisoindolin-4-yl)amino)ethoxy)ethoxy)ethyl)amino)-2-oxoethyl)-1H-pyrazol-4-yl)-3,4-dihydroquinolin-1(2H)-yl)-N-methyl-1-(tetrahydro-2H-pyran-4-yl)-1,4,6,7-tetrahydro-5H-pyrazolo[4,3-c]pyridine-5-carboxamide]",389 nM,< 20%,
"CNC(=O)N1CCc2c(c(N3CCCc4cc(-c5cnn(CC(=O)NCCOCCOCCOCCNc6cccc7c6C(=O)N(C6CCC(=O)NC6=O)C7=O)c5)c(C(F)F)cc43)nn2C2CCOCC2)C1 (stereo not shown) [P-023, 3-(7-(Difluoromethyl)-6-(1-(14-((2-(2,6-dioxopiperidin-3-yl)-1,3-dioxoisoindolin-4-yl)amino)-2-oxo-6,9,12-trioxa-3-azatetradecyl)-1H-pyrazol-4-yl)-3,4-dihydroquinolin-1(2H)-yl)-N-methyl-1-(tetrahydro-2H-pyran-4-yl)-1,4,6,7-tetrahydro-5H-pyrazolo[4,3-c]pyridine-5-carboxamide]",357 nM,< 20%,
"CNC(=O)N1CCc2c(c(N3CCCc4cc(-c5cnn(CC(=O)NCCOCCOCCOCCOCCNc6cccc7c6C(=O)N(C6CCC(=O)NC6=O)C7=O)c5)c(C(F)F)cc43)nn2C2CCOCC2)C1 (stereo not shown) [P-024, 3-(7-(Difluoromethyl)-6-(1-(17-((2-(2,6-dioxopiperidin-3-yl)-1,3-dioxoisoindolin-4-yl)amino)-2-oxo-6,9,12,15-tetraoxa-3-azaheptadecyl)-1H-pyrazol-4-yl)-3,4-dihydroquinolin-1(2H)-yl)-N-methyl-1-(tetrahydro-2H-pyran-4-yl)-1,4,6,7-tetrahydro-5H-pyrazolo[4,3-c]pyridine-5-carboxamide]",524 nM,< 20%,
"CNC(=O)N1CCc2c(c(N3CCCc4cc(-c5cnn(CC(=O)NCCOCCOCCOCCOCCOCCNc6cccc7c6C(=O)N(C6CCC(=O)NC6=O)C7=O)c5)c(C(F)F)cc43)nn2C2CCOCC2)C1 (stereo not shown) [P-025, 3-(7-(Difluoromethyl)-6-(1-(20-((2-(2,6-dioxopiperidin-3-yl)-1,3-dioxoisoindolin-4-yl)amino)-2-oxo-6,9,12,15,18-pentaoxa-3-azaicosyl)-1H-pyrazol-4-yl)-3,4-dihydroquinolin-1(2H)-yl)-N-methyl-1-(tetrahydro-2H-pyran-4-yl)-1,4,6,7-tetrahydro-5H-pyrazolo[4,3-c]pyridine-5-carboxamide]",1250 nM,< 20%,
"CNC(=O)N1CCc2c(c(N3CCCc4cc(-c5cnn(CC(=O)NCCCCCCCNc6ccc7c(c6)C(=O)N(C6CCC(=O)NC6=O)C7=O)c5)c(C(F)F)cc43)nn2C2CCOCC2)C1 (stereo not shown) [P-026, 3-(7-(difluoromethyl)-6-(1-(2-((7-((2-(2,6-dioxopiperidin-3-yl)-1,3-dioxoisoindolin-5-yl)amino)heptyl)amino)-2-oxoethyl)-1H-pyrazol-4-yl)-3,4-dihydroquinolin-1(2H)-yl)-N-methyl-1-(tetrahydro-2H-pyran-4-yl)-1,4,6,7-tetrahydro-5H-pyrazolo[4,3-c]pyridine-5-carboxamide]",3.2 nM,> 80%,
"CNC(=O)N1CCc2c(c(N3CCCc4cc(-c5cnn(CC(=O)NCCCCCCCCNc6ccc7c(c6)C(=O)N(C6CCC(=O)NC6=O)C7=O)c5)c(C(F)F)cc43)nn2C2CCOCC2)C1 (stereo not shown) [P-027, 3-(7-(difluoromethyl)-6-(1-(2-((8-((2-(2,6-dioxopiperidin-3-yl)-1,3-dioxoisoindolin-5-yl)amino)octyl)amino)-2-oxoethyl)-1H-pyrazol-4-yl)-3,4-dihydroquinolin-1(2H)-yl)-N-methyl-1-(tetrahydro-2H-pyran-4-yl)-1,4,6,7-tetrahydro-5H-pyrazolo[4,3-c]pyridine-5-carboxamide]",2.5 nM,> 80%,
